# Data reported in patent publication US7534766B2, “Glucuronide metabolites and epimers thereof of tigecycline” (Wyeth, priority 2004, dated 2009).
# Entries after “also recorded” stand apart in the source; their conditions may differ.
# Tests used:
# [1] = male, human, in vivo
# Protocol: An open-label, inpatient, multiple-dose tigecycline, single-dose [^14C]tigecycline metabolic disposition and mass balance study was performed in six healthy male volunteers. The clinical protocol called for twelve subjects. Of these twelve, six received the radioactive dose (subjects 1, 4, 5, 6, 7, and 8 with subject 8 later dropping out of the study.) Eligible subjects were selected based on inclusion/exclusion criteria, medical history, physical examination and additional procedures outlined in the study protocol. Each subject received a 100 mg loading dose on the morning of Day 1, followed by a 50 mg maintenance dose every 12 hours for an additional 5 doses. On the morning of study Day 4, six subjects received a single 50 mg dose of [^14C]tigecycline (50 μCi). Each tigecycline dose was administered via a 30-minute intravenous infusion.
# Serum samples were collected for metabolite profiling prior to tigecycline dosing and 1, 4, 8, 24 and 48 hours following the [^14C]-labeled dose. For metabolite profiling, urine samples were collected at 0-4, 4-8, 8-24 and 24-48 hours and fecal samples were collected up to 48 hours following the [^14C]-labeled dose. Serum and urine samples, and fecal homogenates were shipped on dry ice to the Biotransformation Division of Drug Safety and Metabolism, Wyeth Research, Collegeville, Pa. The details of the sample collection and sample storage are described in the mass balance portion of the study. The 24-48 hour urine and fecal samples for subject #6 were incomplete since the subject withdrew from the study. While samples from this subject were used for metabolite profiling, the samples were not included in the mass balance calculations.
# Urine samples for metabolite profiling were extracted, as discussed below, using a method previously developed and used for rat and dog urine samples. Urine samples that had been collected at various intervals up to 48 hours following the dose of [^14C]tigecycline were thawed on ice prior to extraction. Aliquots (1 mL) of the individual urine samples were transferred to clean tubes and 0.2 M EDTA, for a final concentration of 40 mM EDTA, was added. […] Samples were mixed, centrifuged and the supernatants analyzed for metabolites by HPLC radiochromatography with selected samples also analyzed by LC/MS.
# HPLC analyses were performed using a Waters 2695 Alliance Separation Module (Waters Corp., Milford, Mass.), a Waters Model 2487 dual wavelength UV absorbance detector, set to monitor 350 nm, and was in-line with a Gilson 215 liquid handler (Gilson, Middleton, Wis.) equipped to collect fractions at 20 second intervals. Fractions were collected into 96-well deep well Luma plates and analyzed using TopCount NXT. The autosampler temperature was set to 4° C. […]
# [2] = LC/MS detection of tigecycline metabolites in CD-1 mouse serum and urine after intravenous tigecycline
# Protocol: Fifteen male CD-1 mice, with an average weight of 31.3 g at the time of dosing, were used. Animals were given food and water ad libitum. Mice in the 0.5 and 2 hour blood collection groups were housed in standard cages, while those in the 4 hour blood collection group were housed in metabolism cages for the collection of urine. Mice were dosed by the Bioresources Department at Wyeth Research, Collegeville, Pa.
# For mice and rabbits, the intravenous dosing solutions was prepared by dissolving 50 mg of tigecycline in 5.0 mL of 0.9% sterile saline solution to make a working stock solution. The working stock solution was diluted with 0.9% sterile saline solution to 0.5 mg/mL for mice and 4 mg/mL for rabbits. The mouse dose (5 mg/kg, 10 mL/kg) was administered as a bolus injection via the tail vein. The rabbit dose (4 mg/kg, 1 mL/kg) was administered as a bolus injection via the marginal vein of the ear.
# For mice (n=5/time point), blood (approximately 0.7 mL) was collected by cardiac puncture at 0.5, 2 and 4 hours following administration of tigecycline. For rabbits, blood (approximately 7 mL) was collected via the ear vein at 0.5, 2 and 6 hours following the tigecycline dose. Serum was separated following clot formation at room temperature and centrifugation for 15 minutes at 4° C. and 3000 rpm. The serum was transferred to a fresh tube and was stored at approximately −70° C. until analysis as described below under “Serum Sample Preparation for LC/MS Analysis. In addition, urine was collected from mice in the 4 hour blood collection group and was stored at approximately −70° C. until analysis, as described below under “Urine Sample Preparation for LC/MS Analysis.”
# Mouse urine was thawed and an aliquot (1 mL) transferred to a fresh tube. The sample was centrifuged at 14,000 rpm and room temperature for 10 minutes using a Model 5415C Eppendorf centrifuge (Brinkmann Instruments, Westbury, N.Y.) to remove any particulates. The sample was then transferred to a fresh tube and was analyzed by LC/MS, as described below under “Liquid Chromatography/Mass Spectrometry Analysis.”.
# Mouse and rabbit serum samples were pooled at each collection time and analyzed for tigecycline, its epimer, tigecycline glucuronide (M7 and its epimer M6), 9-aminominocycline (M3) and N-acetyl-9-aminominocycline (M9 and its epimer M8). Aliquots of serum (500 μL) were transferred to new tubes and deuterated tigecycline (30 ng/mL final concentration) was added as an internal standard (quantitative analysis only). EDTA (40 μL of 0.5 M EDTA) was added to each sample and the samples vortex mixed. Acetonitrile (500 μL) was added to each sample, samples were vortex mixed and denatured protein separated by centrifugation at 14,000 rpm and room temperature for 10 minutes using a Model 5415C Eppendorf centrifuge (Brinkmann Instruments). The supernatant was transferred to a fresh tube and the solvent evaporated under a stream of nitrogen using a Turbovap Model LV evaporator (Caliper Life Sciences, Hopkinton, Mass.).
# The HPLC system used for mass spectrometric analysis was a Waters Alliance Model 2695 HPLC system (Waters Corp., Milford, Mass.). It was equipped with a built-in autosampler and a Model 996 diode array UV detector. The UV detector was set to monitor 210-400 nm. Separations for metabolite characterization were accomplished on a Phenomenex Luna C18(2) column (150×2.1 mm, 5 μm) (Phenomenex, Torrance, Calif.) equipped with a Keystone Uniguard C18 guard column (10×2.1 mm) (Thermo Electron Corp., Bellefonte, Pa.). The column temperature was 25° C. The flow rate was 0.2 mL/min. Mobile phase A was 10 mM ammonium acetate in water and mobile phase B was acetonitrile.
# [3] = Tigecycline metabolites identified in CD-1 mouse serum and urine and rabbit serum samples (LC/MS); format: in vivo
# Protocol: The column temperature was 25° C. The flow rate was 0.2 mL/min. […] Gradient 1 was used for metabolite identification (qualitative analysis).
# LC/MS analysis was conducted on extracts of serum and from CD-1 mice and rabbits, and on urine from CD-1 mice. The mass spectral data for tigecycline and its metabolites are discussed below.
percent of the urinary radioactivity [1],"observed in mouse urine by LC/MS ([2]; mouse, in vivo, iv, 5 mg/kg)","Species and matrix in which identified ([3]; in vivo, iv)",percent of the radioactivity in urine [1],"observed in mouse serum by LC/MS ([2]; male CD-1 mice, 5 mg/kg IV tigecycline, 0.5, 2, 4 hours, 5 mg/kg)","observed in mouse urine by LC/MS ([2]; male CD-1 mice, 5 mg/kg IV tigecycline, urine 0-4 hours)","Species and matrix in which identified ([3]; single IV tigecycline dose, LC/MS)",SMILES
approximately 20%,detected,"R-S, M-S, M-U",,,,,"CN(C)c1cc(NC(=O)CNC(C)(C)C)c(O)c2c1C[C@H]1C[C@H]3C(N(C)C)C(O[C@@H]4O[C@H](C(=O)O)[C@@H](O)[C@H](O)[C@H]4O)=C(C(N)=O)C(=O)[C@@]3(O)C(O)=C1C2=O (stereo in doubt) [Metabolite M7, tigecycline glucuronide]"
,,,15-37%,,,,"CC(C)(C)NCC(=O)O [Metabolite M3a, t-butylaminoacetic acid]"
,detected,"R-S, M-S, M-U",less than 1%,,,,"CN(C)c1cc(NC(=O)CNC(C)(C)C)c(O)c2c1C[C@H]1C[C@H]3[C@@H](N(C)C)C(O[C@@H]4O[C@H](C(=O)O)[C@@H](O)[C@H](O)[C@H]4O)=C(C(N)=O)C(=O)[C@@]3(O)C(O)=C1C2=O [Metabolite M6, epimer of tigecycline glucuronide]"
,,,,observed; also recorded: detected,detected,"R-S, M-S, M-U",CN(C)c1cc(NC(=O)CNC(C)(C)C)c(O)c2c1C[C@H]1C[C@H]3[C@H](N(C)C)C(O)=C(C(N)=O)C(=O)[C@@]3(O)C(O)=C1C2=O [Tigecycline]
